Laboratory results as given in patent US20230063462A1, “SULFONIMIDAMIDE COMPOUNDS AND COMPOSITIONS FOR TREATING CONDITIONS ASSOCIATED WITH NLRP ACTIVITY” (NOVARTIS AG, priority 2019, published 2023).

System: THP-1 cells
Assay: hTHP-1 assay: gramicidin-stimulated IL-1β detection in PMA-treated THP-1 cells
Format: cell-based, human
Settings: Table B2, 10% FBS

SMILES | IC50 (class symbol) [µM] | IC50 (numeric value) [µM]
NS(=O)(=NC(=O)Nc1c2c(nc(C3CC3)c1C1CC1)CCC2)c1nn(C2CC2)cc1F (single isomer, unassigned) [Example 883, (S) or (R)-1-cyclopropyl-N′-((2,3-dicyclopropyl-6,7-dihydro-5H-cyclopenta[b]pyridin-4-yl)carbamoyl)-4-fluoro-1H-pyrazole-3-sulfonimidamide] | 1 to 5 | 1.25
Cc1c(C(F)(F)F)nc2c(c1NC(=O)N=S(N)(=O)c1ccn(C3CC3)n1)CCC2 (single isomer, unassigned) [Example 890, (R) or (S)-1-cyclopropyl-N′-((3-methyl-2-(trifluoromethyl)-6,7-dihydro-5H-cyclopenta [b]pyridin-4-yl)carbamoyl)-1H-pyrazole-3-sulfonimidamide] | 0.04 to 0.2 | 0.108
C[C@@H](O)Cn1cc(F)c(S(N)(=O)=NC(=O)Nc2c3c(nc4c2CCC42CC2)CCC3)n1 (single isomer, unassigned) [Example 892, (R) or (S)-4-fluoro-1-((R)-2-hydroxypropyl)-N′-((1′,5′,6′,7′-tetrahydro-2′H-spiro [cyclopropane-1,3′-dicyclopenta[b,e]pyridin]-8′-yl)carbamoyl)-1H-pyrazole-3-sulfonimidamide] | 0.008 to 0.04 | 0.0127
C[C@@H](O)Cn1cc(F)c(S(N)(=O)=NC(=O)Nc2c3c(nc4c2CCC42CC2)CCC3)n1 (single isomer, unassigned) [Example 893, (S) or (R)-4-fluoro-1-((R)-2-hydroxypropyl)-N′-((1′,5′,6′,7′-tetrahydro-2′H-spiro [cyclopropane-1,3′-dicyclopenta[b,e]pyridin]-8′-yl)carbamoyl)-1H-pyrazole-3-sulfonimidamide] | 0.2 to 1 | 0.679
C[C@H](O)Cn1cc(F)c(S(N)(=O)=NC(=O)Nc2c3c(nc4c2CCC42CC2)CCC3)n1 (single isomer, unassigned) [Example 896, (R) or (S)-4-fluoro-1-((S)-2-hydroxypropyl)-N′-((1′,5′,6′,7′-tetrahydro-2′H-spiro [cyclopropane-1,3′-dicyclopenta[b,e]pyridin]-8′-yl)carbamoyl)-1H-pyrazole-3-sulfonimidamide] | 0.008 to 0.04 | 0.0136
C[C@H](O)Cn1cc(F)c(S(N)(=O)=NC(=O)Nc2c3c(nc4c2CCC42CC2)CCC3)n1 (single isomer, unassigned) [Example 897, (S) or (R)-4-fluoro-1-((S)-2-hydroxypropyl)-N′-((1′,5′,6′,7′-tetrahydro-2′H-spiro [cyclopropane-1,3′-dicyclopenta[b,e]pyridin]-8′-yl)carbamoyl)-1H-pyrazole-3-sulfonimidamide] | 0.2 to 1 | 0.31

Now from value to compound:

IC50 (class symbol) [µM] | IC50 (numeric value) [µM] | SMILES
0.04 to 0.2 | 0.0533 | NS(=O)(=NC(=O)Nc1c2c(nc3c1CCC31CC1)CCC2)c1ccn(C2CC2)n1 (single isomer, unassigned) [Example 884, (R) or (S)-1-cyclopropyl-N′-((1′,5′,6′,7′-tetrahydro-2′H-spiro[cyclopropane-1,3′-dicyclopenta[b,e]pyridin]-8′-yl)carbamoyl)-1H-pyrazole-3-sulfonimidamide]
1 to 5 | 2.26 | NS(=O)(=NC(=O)Nc1c2c(nc3c1CCC31CC1)CCC2)c1ccn(C2CC2)n1 (single isomer, unassigned) [Example 885, (S) or (R)-1-cyclopropyl-N′-((1′,5′,6′,7′-tetrahydro-2′H-spiro[cyclopropane-1,3′-dicyclopenta[b,e]pyridin]-8′-yl)carbamoyl)-1H-pyrazole-3-sulfonimidamide]
0.2 to 1 | 0.27 | NS(=O)(=NC(=O)Nc1c2c(nc3c1CCC3)CCC2)c1ccn(C2CC2)n1 (single isomer, unassigned) [Example 886, (R) or (S)-1-cyclopropyl-N′-((1,2,3,5,6,7-hexahydrodicyclopenta [b,e]pyridin-8-yl)carbamoyl)-1H-pyrazole-3-sulfonimidamide]
5 to 30 | 5.88 | NS(=O)(=NC(=O)Nc1c2c(nc3c1CCC3)CCC2)c1ccn(C2CC2)n1 (single isomer, unassigned) [Example 887, (S) or (R)-1-cyclopropyl-N′-((1,2,3,5,6,7-hexahydrodicyclopenta [b,e]pyridin-8-yl)carbamoyl)-1H-pyrazole-3-sulfonimidamide]
0.04 to 0.2 | 0.0494 | C[C@@H]1CCc2c1nc1c(c2NC(=O)N=S(N)(=O)c2ccn(C3CC3)n2)CCC1 (single isomer, unassigned) [Example 888, (R) or (S)-1-cyclopropyl-N′-(((R)-3-methyl-1,2,3,5,6,7-hexahydrodicyclopenta [b,e]pyridin-8-yl)carbamoyl)-1H-pyrazole-3-sulfonimidamide]
1 to 5 | 1.67 | C[C@@H]1CCc2c1nc1c(c2NC(=O)N=S(N)(=O)c2ccn(C3CC3)n2)CCC1 (single isomer, unassigned) [Example 889, (S) or (R)-1-cyclopropyl-N′-(((R)-3-methyl-1,2,3,5,6,7-hexahydrodicyclopenta [b,e]pyridin-8-yl)carbamoyl)-1H-pyrazole-3-sulfonimidamide]
5 to 30 | 6.51 | Cc1c(C(F)(F)F)nc2c(c1NC(=O)N=S(N)(=O)c1ccn(C3CC3)n1)CCC2 (single isomer, unassigned) [Example 891, (S) or (R)-1-cyclopropyl-N′-((3-methyl-2-(trifluoromethyl)-6,7-dihydro-5H-cyclopenta [b]pyridin-4-yl)carbamoyl)-1H-pyrazole-3-sulfonimidamide]
